19 compounds from PubChem BioAssay AID256 (DTP/NCI, 2004) can be followed below.

Inconclusive results and toxic doses are left out.

The assay concerns CD2F1 mice, L1210 leukemia ip, survival T/C. Briefly: NCI In Vivo Anticancer Drug Screen. Data for tumor model L1210 Leukemia (intraperitoneal) in CD2F1 (CDF1) mice. As to conditions: higher = longer survival. Summed up: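 Tumor-bearing mice (transplanted tumor) were split into treated and vehicle control groups, and the measured endpoint of each treated group was divided by that of its vehicle controls.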

Where [1] appears, read: endpoint: mean survival time, dose: 25.0 mg/kg/injection, schedule: Q01DX009 (ip), vehicle: saline with Tween-80.
Setting [2] is: endpoint: mean survival time, dose: 50.0 mg/kg/injection, schedule: Q01DX009 (ip), vehicle: saline with Tween-80.
The mark [3] stands for this setting: endpoint: mean survival time, dose: 100.0 mg/kg/injection, schedule: Q01DX009 (ip), vehicle: saline with Tween-80.
Where [4] appears, read: endpoint: mean survival time, dose: 100.0 mg/kg/injection, schedule: Q04DX003 (ip), vehicle: saline with Tween-80.
[5] abbreviates: endpoint: mean survival time, dose: 200.0 mg/kg/injection, schedule: Q01DX009 (ip), vehicle: saline with Tween-80.
[6] abbreviates: endpoint: mean survival time, dose: 200.0 mg/kg/injection, schedule: Q04DX003 (ip), vehicle: saline with Tween-80.
Where [7] appears, read: endpoint: mean survival time, dose: 25.0 mg/kg/injection, schedule: Q01DX001 (ip), vehicle: saline.
The mark [8] stands for this setting: endpoint: mean survival time, dose: 100.0 mg/kg/injection, schedule: Q01DX001 (ip), vehicle: saline with Tween-80.
The mark [9] stands for this setting: endpoint: mean survival time, dose: 400.0 mg/kg/injection, schedule: Q01DX009 (ip), vehicle: saline with Tween-80.
Setting [10] is: endpoint: mean survival time, dose: 400.0 mg/kg/injection, schedule: Q04DX003 (ip), vehicle: saline with Tween-80.
Where [11] appears, read: endpoint: mean survival time, dose: 6.25 mg/kg/injection, schedule: Q01DX009 (ip), vehicle: saline with Tween-80.
Setting [12] is: endpoint: mean survival time, dose: 12.5 mg/kg/injection, schedule: Q01DX009 (ip), vehicle: saline with Tween-80.

For `O=C(N/N=C/c1ccc(Cl)cc1)C(O)(c1ccccc1)c1ccccc1`, the T/C reads like this: under setting [1], 102 % of control; under setting [2], 91 % of control; under setting [3], 96 % of control.
With `O=C(OCC(I)CC(F)(F)C(F)(F)F)c1ccc2cc(C(=O)OC(I)CC(F)(F)C(F)(F)F)ccc2c1` (stereo not given), the T/C is, setting by setting: (endpoint: mean survival time, dose: 75.0 mg/kg/injection, schedule: Q01DX001 (ip), vehicle: other) 101 % of control; (endpoint: mean survival time, dose: 150.0 mg/kg/injection, schedule: Q01DX001 (ip), vehicle: other) 91 % of control; (endpoint: mean survival time, dose: 300.0 mg/kg/injection, schedule: Q01DX001 (ip), vehicle: other) 97 % of control.
As for `CC(NC1=C(Cl)C(=O)c2ccccc2C1=O)c1ccccc1` (stereo not given), the T/C is 102 % of control (endpoint: mean survival time, dose: 25.0 mg/kg/injection, schedule: Q04DX003 (ip), vehicle: saline with Tween-80); 96 % of control (endpoint: mean survival time, dose: 50.0 mg/kg/injection, schedule: Q04DX003 (ip), vehicle: saline with Tween-80); 95 % of control under setting [4].
With `CC(=O)c1cc(C)[nH]c1C`, the T/C under setting [2] was 101 % of control; the T/C under setting [3] is 100 % of control; the T/C under setting [4] is 102 % of control; the T/C under setting [5] was 103 % of control; the T/C under setting [6] is 96 % of control; the T/C (endpoint: median survival time, dose: 100.0 mg/kg/injection, schedule: Q01DX001 (ip), vehicle: saline with Tween-80) is 100 % of control. Further, the T/C (endpoint: median survival time, dose: 200.0 mg/kg/injection, schedule: Q01DX001 (ip), vehicle: saline with Tween-80) is 100 % of control.
Turning to `CN(C)c1nc(Cl)cc2c1ncn2C1OC(CO)C(O)C1O` (stereo not given), the T/C (endpoint: mean survival time, dose: 100.0 mg/kg/injection, schedule: Q01DX005 (ip), vehicle: saline) was 117 % of control.
Take `CCOC(=O)c1ncc(Cl)cc1N`: under “endpoint: mean survival time, dose: 50.0 mg/kg/injection, schedule: Q01DX009 (ip), vehicle: Klucel (hydroxypropylcellulose) (HPC)”, the T/C is 97 % of control.
As to `CN(CCCCN(C)CCOS(C)(=O)=O)CCOS(C)(=O)=O`, the T/C by setting is: (endpoint: mean survival time, dose: 0.4 mg/kg/injection, schedule: Q01DX009 (ip), vehicle: saline) 112 % of control; (endpoint: mean survival time, dose: 0.8 mg/kg/injection, schedule: Q01DX009 (ip), vehicle: saline) 115 % of control; (endpoint: mean survival time, dose: 3.6 mg/kg/injection, schedule: Q01DX001 (ip), vehicle: saline) 110 % of control; (endpoint: mean survival time, dose: 4.0 mg/kg/injection, schedule: Q01DX009 (ip), vehicle: saline) 103 % of control; (endpoint: mean survival time, dose: 8.3 mg/kg/injection, schedule: Q01DX001 (ip), vehicle: saline) 118 % of control; (endpoint: mean survival time, dose: 12.5 mg/kg/injection, schedule: Q01DX001 (ip), vehicle: saline) 150 % of control. The T/C under setting [7] was 156 % of control.
In the case of `C=C(Cl)C(C)(C)C`, the T/C under setting [7] is 98 % of control; the T/C (endpoint: mean survival time, dose: 50.0 mg/kg/injection, schedule: Q01DX001 (ip), vehicle: saline) is 104 % of control; the T/C (endpoint: mean survival time, dose: 100.0 mg/kg/injection, schedule: Q01DX001 (ip), vehicle: saline) was 100 % of control.
For `O=C(O)CC(Nc1sc([N+](=O)[O-])cc1[N+](=O)[O-])C(=O)O` (stereo not given), the T/C under setting [8] was 98 % of control; the T/C (endpoint: mean survival time, dose: 200.0 mg/kg/injection, schedule: Q01DX001 (ip), vehicle: saline with Tween-80) is 105 % of control; the T/C (endpoint: mean survival time, dose: 400.0 mg/kg/injection, schedule: Q01DX001 (ip), vehicle: saline with Tween-80) was 102 % of control.
On to `O=C1N(C2CCCCC2)CC2C(c3ccccc3)NNC12O` (stereo not given), for which the T/C reads like this: under setting [3], 103 % of control; under setting [4], 97 % of control; under setting [5], 90 % of control; under setting [6], 97 % of control; under setting [9], 100 % of control; under setting [10], 98 % of control.
As for `COC(=O)c1cn[nH]c1/N=N/N(C)C`, the T/C was 175 % of control (endpoint: mean survival time, dose: 88.0 mg/kg/injection, schedule: Q01DX009 (ip), vehicle: other); 164 % of control (endpoint: mean survival time, dose: 133.0 mg/kg/injection, schedule: Q01DX009 (ip), vehicle: other); 88 % of control (endpoint: mean survival time, dose: 300.0 mg/kg/injection, schedule: Q01DX009 (ip), vehicle: other).
With `CC(C[P+](c1ccccc1)(c1ccccc1)c1ccccc1)C(O)(C(=O)c1ccccc1)c1ccccc1` (stereo not given), the T/C is 108 % of control (endpoint: mean survival time, dose: 6.25 mg/kg/injection, schedule: Q01DX001 (ip), vehicle: saline with Tween-80); 95 % of control under setting [11]; 103 % of control (endpoint: mean survival time, dose: 12.5 mg/kg/injection, schedule: Q01DX001 (ip), vehicle: saline with Tween-80); 110 % of control under setting [12]; 108 % of control (endpoint: mean survival time, dose: 25.0 mg/kg/injection, schedule: Q01DX001 (ip), vehicle: saline with Tween-80).
For `[N-]=[N+]=NCCCCCCCCCCN=[N+]=[N-]`, the T/C was 98 % of control (endpoint: mean survival time, dose: 75.0 mg/kg/injection, schedule: Q01DX001 (ip), vehicle: saline); 101 % of control (endpoint: mean survival time, dose: 150.0 mg/kg/injection, schedule: Q01DX001 (ip), vehicle: saline); 98 % of control (endpoint: mean survival time, dose: 300.0 mg/kg/injection, schedule: Q01DX001 (ip), vehicle: saline).
`N#Cc1nc(-c2ccco2)c(-c2ccco2)nc1C#N`: the T/C (endpoint: mean survival time, dose: 25.0 mg/kg/injection, schedule: Q04DX002 (ip), vehicle: saline with Tween-80) was 102 % of control; the T/C (endpoint: mean survival time, dose: 50.0 mg/kg/injection, schedule: Q04DX002 (ip), vehicle: saline with Tween-80) is 90 % of control; the T/C under setting [8] is 96 % of control; the T/C (endpoint: mean survival time, dose: 100.0 mg/kg/injection, schedule: Q04DX002 (ip), vehicle: saline with Tween-80) is 90 % of control.
As to `COC(=O)C1C2C=CC(C3C=CC32)C1C(=O)OC` (stereo not given), the T/C was 97 % of control under setting [3], 94 % of control under setting [5] and 95 % of control under setting [9].
Consider `CO[C@]12[C@@H](COC(N)=O)C3=C(C(=O)C(C)=C(NCC4CCCO4)C3=O)N1C[C@@H]1[C@H]2N1C` (stereo not given in full), for which the T/C (endpoint: mean survival time, dose: 1.5 mg/kg/injection, schedule: Q01DX001 (ip), vehicle: saline with Tween-80) was 102 % of control; the T/C (endpoint: mean survival time, dose: 3.0 mg/kg/injection, schedule: Q01DX001 (ip), vehicle: saline with Tween-80) was 98 % of control; the T/C (endpoint: mean survival time, dose: 6.0 mg/kg/injection, schedule: Q01DX001 (ip), vehicle: saline with Tween-80) was 104 % of control; the T/C (endpoint: mean survival time, dose: 12.0 mg/kg/injection, schedule: Q01DX001 (ip), vehicle: saline with Tween-80) was 104 % of control; the T/C (endpoint: mean survival time, dose: 24.0 mg/kg/injection, schedule: Q01DX001 (ip), vehicle: distilled water + Tween-80) was 114 % of control; the T/C (endpoint: mean survival time, dose: 24.0 mg/kg/injection, schedule: Q01DX001 (ip), vehicle: saline with Tween-80) was 116 % of control. Besides, the T/C reads like this: (endpoint: mean survival time, dose: 25.0 mg/kg/injection, schedule: Q01DX001 (ip), vehicle: distilled water + Tween-80) 121 % of control; (endpoint: mean survival time, dose: 48.0 mg/kg/injection, schedule: Q01DX001 (ip), vehicle: distilled water + Tween-80) 124 % of control; (endpoint: mean survival time, dose: 100.0 mg/kg/injection, schedule: Q01DX001 (ip), vehicle: distilled water + Tween-80) 113 % of control.
Regarding `CCCCCCCCCCCCSC1=C(Cl)C(=O)C(OC)=C(OC)C1=O`, the T/C is, setting by setting: under setting [11], 91 % of control; under setting [12], 94 % of control; under setting [1], 95 % of control; under setting [2], 93 % of control.
With `[Cl][Pt+2][Cl].[NH-]c1ccccc1-c1ccccc1[NH-]`, the T/C is, setting by setting: (endpoint: mean survival time, dose: 3.13 mg/kg/injection, schedule: Q04DX003 (ip), vehicle: saline) 104 % of control; (endpoint: mean survival time, dose: 6.25 mg/kg/injection, schedule: Q04DX003 (ip), vehicle: saline) 109 % of control; (endpoint: mean survival time, dose: 12.5 mg/kg/injection, schedule: Q04DX003 (ip), vehicle: saline) 120 % of control; (endpoint: mean survival time, dose: 25.0 mg/kg/injection, schedule: Q04DX003 (ip), vehicle: saline) 113 % of control; (endpoint: mean survival time, dose: 50.0 mg/kg/injection, schedule: Q04DX003 (ip), vehicle: saline) 109 % of control; (endpoint: mean survival time, dose: 100.0 mg/kg/injection, schedule: Q04DX003 (ip), vehicle: saline) 94 % of control.
`Nc1ccccc1N=Cc1cccc([N+](=O)[O-])c1`: the T/C was 94 % of control under setting [3]; 101 % of control under setting [4]; 96 % of control under setting [5]; 98 % of control under setting [6]; 100 % of control under setting [9]; 101 % of control under setting [10].
